System: MMP-1 (Matrix Metalloproteinase-1) production
Assay: glucocorticoid inhibition of IL-1 induced MMP-1 production in human chondrosarcoma cells
Type: cell-based
Details: SW1353 human chondrosarcoma cells, 20 ng/ml IL-1 beta, 72 hours after IL-1 addition, ELISA; read-out: IC50, inhibitor of MMP1 expression
Method: (§1) This assay, the glucocorticoid inhibition of IL-1 (Interleukin-1) induced MMP-1 (Matrix Metalloproteinase-1) and IL-8 (Interleukin-8) production in human chondrosarcoma cells, is conducted as follows: SW1353 human chondrosarcoma cells (obtained from ATCC) from passage 12 through passage 19 are used in a 96 well format assay. Cells are plated at confluence into 96 well plates in DMEM (Dulbecco's Modified Eagle Medium) with 10% fetal bovine serum and incubated at 37° C., 5% CO2. After 24 hours, serum containing media is removed and replaced with 200 ul/well DMEM containing 1 mg/L insulin, 2 g/L lactalbumin hydrosylate, and 0.5 mg/L ascorbic acid and returned to incubation at 37° C., 5% CO2. […] IL-8 production is assessed using the Quantikine human IL-8 ELISA kit from R&D Systems (D8050) on samples diluted 60-fold in RD5P Calibrator Diluent, following the manufacturer's protocol. The percent of the average IL-1 control is determined for the average of each of the triplicate samples following subtraction of the average signal from untreated cells. IC50's are determined from log linear plots of the percent of control versus the concentration of inhibitor. […] MMP-1 production is assessed via the Bio-Trak MMP-1 ELISA kit from Amersham (RPN2610) on 100 ul of neat sample following the manufacturer's protocol. […]
With `C[C@@H]1C[C@H]2[C@@H]3CCC4=CC(=O)C=C[C@]4(C)[C@@]3(F)[C@@H](O)C[C@]2(C)[C@@]1(O)C(=O)CO` [Dexamethasone, (11β,16α)-9-fluoro-11,17,21-trihydroxy-16-methylpregna-1,4-diene-3,20-dione] the IC50 was 5 nM.

System: IL-8 (Interleukin-8) production
Assay: glucocorticoid inhibition of IL-1 induced IL-8 production in human chondrosarcoma cells
Type: cell-based
Details: SW1353 human chondrosarcoma cells, 20 ng/ml IL-1 beta, 24 hours after addition of IL-1, ELISA; read-out: IC50, inhibitor of IL-8 expression
Method: as §1
Compound `C[C@@H]1C[C@H]2[C@@H]3CCC4=CC(=O)C=C[C@]4(C)[C@@]3(F)[C@@H](O)C[C@]2(C)[C@@]1(O)C(=O)CO` [Dexamethasone, (11β,16α)-9-fluoro-11,17,21-trihydroxy-16-methylpregna-1,4-diene-3,20-dione] has an IC50 of 5 nM.

System: not given
Assay: not given
Details: not given
With `CC[C@@]12C[C@H](O)[C@](O)(c3c(F)cccc3F)C[C@H]1CCc1cc(OCc3cccnc3C)ccc12` (hydrate or solvate) [Example 56, (2R,3S,4aR,10aR)-2-(2,6-Difluoro-phenyl)-4a-ethyl-7-(2-methyl-pyridin-3-ylmethoxy)-1,2,3,4,4a,9,10,10a-octahydro-phenanthrene-2,3-diol] the melting point was 80 to 83 °C. For `CC[C@@]12C[C@H](O)[C@](O)(c3c(F)cccc3F)C[C@H]1CCc1cc(O)ccc12` [Example 35, (2R,3S,4aR,10aR)-2-(2,6-difluorophenyl)-4a-ethyl-1,2,3,4,4a,9,10,10a-octahydrophenanthrene-2,3,7-triol], the melting point was 198 to 200 °C. Work on `CC[C@@]12C[C@H](N)[C@](O)(c3ccccc3)C[C@H]1CCc1cc(O)ccc12` [Example 41, (2R,3S,4aR,10aR)-3-Amino-4a-ethyl-2-phenyl-1,2,3,4,4a,9,10,10a-octahydro-phenanthrene-2,7-diol] yielded a melting point of 209 to 210 °C. Work on `CC[C@@]12C[C@](O)(C(C)C)[C@](O)(c3ccccc3)C[C@H]1CCc1cc(O)ccc12` [Example 49] yielded a melting point of 236 to 237 °C. For `CC[C@@]12C[C@@](C)(O)[C@](O)(c3ccccc3)C[C@H]1CCc1cc(OCC(=O)O)ccc12` [Example 70, (4bR,6R,7R,8aR)-(4b-Ethyl-6,7-dihydroxy-6-methyl-7-phenyl-4b,5,6,7,8,8a,9,10-octahydro-phenanthren-2-yloxy)-acetic acid], the melting point was 190 to 191 °C. With `CC[C@@]12C[C@@](C)(O)[C@](O)(c3ccccc3)C[C@H]1CCc1cc(OCC(C)(C)O)ccc12` [Example 73, (2R,3R,4aR,10aR)-4a-Ethyl-7-(2-hydroxy-2-methyl-propoxy)-3-methyl-2-phenyl-1,2,3,4,4a,9,10,10a-octahydro-phenanthrene-2,3-diol] the melting point was 190 to 193 °C. For `CC[C@@]12C[C@@](C)(O)[C@](O)(c3ccccc3)C[C@H]1CCc1cc(OCc3nnn[nH]3)ccc12` [Example 76, (2R,3R,4aR,10aR)-4a-Ethyl-3-methyl-2-phenyl-7-(1H-tetrazol-5-ylmethoxy)-1,2,3,4,4a,9,10,10a-octahydro-phenanthrene-2,3-diol], the melting point was 108 to 110 °C.

Reference: patent US7138406B2, “Modulators of the glucocorticoid receptor” (Pfizer, Inc., priority 2002, dated 2006)
